Data: the supplement of paper PMC7840683
± gives the standard deviation of the averaged measurements.

Tested on: HepaRG
Assay: LDH release cytotoxicity, % of total lysis control; higher = more cytotoxic
Details: 48 h
Procedure, shortened: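 Single-lot HepaRG cells on collagen I-coated 96-well plates were exposed for 48 h in duplicate, in serum-free induction medium with 0.5% DMSO, to eight-point half-log series (test chemicals top 100 µM). Total lysis wells received 0.1% Triton X, and LDH leakage into 50 µL spent medium was read as resorufin fluorescence (CytoTox-ONE, Tecan Safire). Percent cytotoxicity was normalized to on-plate vehicle and total lysis controls and averaged over the duplicates.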

CCCCCCCCCCCCCO [1-Tridecanol]
LDH release cytotoxicity (0.03162 µM): -1.51 ± 0.42%
LDH release cytotoxicity (0.1 µM): -0.843 ± 0.39%
LDH release cytotoxicity (0.3162278 µM): -0.758 ± 0.15%
LDH release cytotoxicity (1 µM): -0.914 ± 0.16%
LDH release cytotoxicity (3.16228 µM): -0.263 ± 1%
LDH release cytotoxicity (10 µM): 0.564 ± 1.8%
LDH release cytotoxicity (31.6228 µM): 0.347 ± 1.4%
LDH release cytotoxicity (100 µM): 3.78 ± 2.1%

CCCCCCCCCCCO [1-Undecanol]
LDH release cytotoxicity (0.01581 µM): -2.55 ± 0.72%
LDH release cytotoxicity (0.05 µM): -3.97 ± 0.19%
LDH release cytotoxicity (0.1581139 µM): -3.8 ± 1.3%
LDH release cytotoxicity (0.5 µM): -4.64 ± 0.28%
LDH release cytotoxicity (1.5811388 µM): -2.84 ± 0.45%
LDH release cytotoxicity (5 µM): -3.15 ± 0.031%
LDH release cytotoxicity (15.8114 µM): -2.96 ± 1.5%
LDH release cytotoxicity (50 µM): 4.08 ± 2.9%

CCO[Si](CCCNC(N)=O)(OCC)OCC [1-[3-(Triethoxysilyl)propyl]urea]
LDH release cytotoxicity (0.03162 µM): -1.05 ± 0.013%
LDH release cytotoxicity (0.1 µM): -2.25 ± 0.44%
LDH release cytotoxicity (0.3162278 µM): -1.8 ± 0.35%
LDH release cytotoxicity (1 µM): -2.22 ± 0.071%
LDH release cytotoxicity (3.16228 µM): -2.28 ± 0.25%
LDH release cytotoxicity (10 µM): -1.64 ± 0.34%
LDH release cytotoxicity (31.6228 µM): -1.55 ± 0.96%
LDH release cytotoxicity (100 µM): 0.263 ± 0.38%

FC(F)(F)C(F)(F)C(F)(F)C(F)(F)C(F)(F)C(F)(F)CCI [1H,1H,2H,2H-Perfluorooctyl iodide]
LDH release cytotoxicity (0.03162 µM): -2.1 ± 0.36%
LDH release cytotoxicity (0.1 µM): -1.68 ± 0.34%
LDH release cytotoxicity (0.3162278 µM): -1.96 ± 0.36%
LDH release cytotoxicity (1 µM): -2.44 ± 0.81%
LDH release cytotoxicity (3.16228 µM): -1.64 ± 0.62%
LDH release cytotoxicity (10 µM): -1.16 ± 0.9%
LDH release cytotoxicity (31.6228 µM): -0.32 ± 0.46%
LDH release cytotoxicity (100 µM): 1 ± 0.87%

c1nc[nH]n1 [1H-1,2,4-Triazole]
LDH release cytotoxicity (0.03162 µM): 0.679 ± 0.53%
LDH release cytotoxicity (0.1 µM): 0.298 ± 0.72%
LDH release cytotoxicity (0.3162278 µM): -1.06 ± 0.17%
LDH release cytotoxicity (1 µM): -0.618 ± 0.53%
LDH release cytotoxicity (3.16228 µM): 0.566 ± 1.4%
LDH release cytotoxicity (10 µM): 0.541 ± 1.2%
LDH release cytotoxicity (31.6228 µM): 1.08 ± 0.1%
LDH release cytotoxicity (100 µM): 2.04 ± 1.2%

O=c1[nH]cnc2c1ncn2C1CCC(CO)O1 (configuration not stated) [2',3'-Dideoxyinosine]
LDH release cytotoxicity (0.03162 µM): -2.26 ± 0.4%
LDH release cytotoxicity (0.1 µM): -1.91 ± 0.031%
LDH release cytotoxicity (0.3162278 µM): -1.96 ± 1%
LDH release cytotoxicity (1 µM): -1.29 ± 0.97%
LDH release cytotoxicity (3.16228 µM): -1.75 ± 0.0016%
LDH release cytotoxicity (10 µM): -1.3 ± 0.057%
LDH release cytotoxicity (31.6228 µM): -1.11 ± 1.1%
LDH release cytotoxicity (100 µM): -0.428 ± 0.43%

O=C(c1ccc(O)cc1O)c1ccc(O)cc1O [2,2',4,4'-Tetrahydroxybenzophenone]
LDH release cytotoxicity (0.031623 µM): -0.783 ± 0.28%
LDH release cytotoxicity (0.1 µM): -1.13 ± 1.1%
LDH release cytotoxicity (0.316228 µM): -1.37 ± 0.79%
LDH release cytotoxicity (1 µM): -1.52 ± 0.89%
LDH release cytotoxicity (3.16228 µM): -2.25 ± 0.71%
LDH release cytotoxicity (10 µM): -1.76 ± 0.33%
LDH release cytotoxicity (31.6228 µM): 1.26 ± 0.54%
LDH release cytotoxicity (100 µM): 35.3 ± 1.2%

NCCOCCOCCN [2,2'-[Ethane-1,2-diylbis(oxy)]diethanamine]
LDH release cytotoxicity (0.03162 µM): -0.945 ± 0.74%
LDH release cytotoxicity (0.1 µM): -1.12 ± 0.47%
LDH release cytotoxicity (0.3162278 µM): -0.214 ± 0.033%
LDH release cytotoxicity (1 µM): 0.303 ± 0.8%
LDH release cytotoxicity (3.16228 µM): 2.6 ± 0.91%
LDH release cytotoxicity (10 µM): 2.46 ± 0.46%
LDH release cytotoxicity (31.6228 µM): 1.93 ± 0.86%
LDH release cytotoxicity (100 µM): 4 ± 0.68%

CC(C)C(=O)OCC(C)(C)C(OC(=O)C(C)C)C(C)C (configuration not stated) [2,2,4-Trimethyl-1,3-pentanediol diisobutyrate]
LDH release cytotoxicity (0.03162 µM): -1.97 ± 1.2%
LDH release cytotoxicity (0.1 µM): -3.46 ± 0.69%
LDH release cytotoxicity (0.3162278 µM): -3.48 ± 0.61%
LDH release cytotoxicity (1 µM): -2.95 ± 0.15%
LDH release cytotoxicity (3.16228 µM): -3.05 ± 0.42%
LDH release cytotoxicity (10 µM): -2.18 ± 0.16%
LDH release cytotoxicity (31.6228 µM): -2.05 ± 0.51%
LDH release cytotoxicity (100 µM): 0.686 ± 0.88%

Oc1ccc(C(c2ccc(O)cc2)C(Cl)(Cl)Cl)cc1 [2,2-Bis(4-hydroxyphenyl)-1,1,1-trichloroethane]
LDH release cytotoxicity (0.0320971 µM): 1.05 ± 0.97%
LDH release cytotoxicity (0.1015 µM): 0.207 ± 0.19%
LDH release cytotoxicity (0.320971 µM): 0.656 ± 0.4%
LDH release cytotoxicity (1.015 µM): 1.23 ± 0.62%
LDH release cytotoxicity (3.2097118 µM): 0.563 ± 0.45%
LDH release cytotoxicity (10.15 µM): 0.192 ± 0.82%
LDH release cytotoxicity (32.0971 µM): 1.16 ± 0.45%
LDH release cytotoxicity (101.5 µM): 2.4 ± 0.33%

N#CC(Br)(Br)C(N)=O [2,2-Dibromo-3-nitrilopropionamide]
LDH release cytotoxicity (0.0314647 µM): -1.52 ± 0.18%
LDH release cytotoxicity (0.0995 µM): -0.658 ± 0.1%
LDH release cytotoxicity (0.3146466 µM): -0.437 ± 0.73%
LDH release cytotoxicity (0.995 µM): -0.589 ± 0.45%
LDH release cytotoxicity (3.14647 µM): 0.314 ± 0.39%
LDH release cytotoxicity (9.95 µM): 0.381 ± 0.73%
LDH release cytotoxicity (31.4647 µM): -0.137 ± 0.43%
LDH release cytotoxicity (99.5 µM): 1.42 ± 0.75%

Cc1ccc(C)c(O)c1C [2,3,6-Trimethylphenol]
LDH release cytotoxicity (0.03162 µM): -2.75 ± 0.2%
LDH release cytotoxicity (0.1 µM): -1.45 ± 0.5%
LDH release cytotoxicity (0.3162278 µM): -1.53 ± 0.21%
LDH release cytotoxicity (1 µM): -1.64 ± 0.019%
LDH release cytotoxicity (3.16228 µM): -1.22 ± 0.35%
LDH release cytotoxicity (10 µM): -0.829 ± 0.93%
LDH release cytotoxicity (31.6228 µM): -0.517 ± 0.35%
LDH release cytotoxicity (100 µM): 0.375 ± 0.18%

c1ccc2occc2c1 [2,3-Benzofuran]
LDH release cytotoxicity (0.03162 µM): -0.572 ± 0.84%
LDH release cytotoxicity (0.1 µM): -1.07 ± 0.4%
LDH release cytotoxicity (0.3162278 µM): -0.829 ± 0.4%
LDH release cytotoxicity (1 µM): -0.181 ± 0.71%
LDH release cytotoxicity (3.16228 µM): -1.1 ± 0.81%
LDH release cytotoxicity (10 µM): 0.338 ± 0.67%
LDH release cytotoxicity (31.6228 µM): 2.32 ± 1.2%
LDH release cytotoxicity (100 µM): 2.02 ± 0.38%

Cc1cccc(N)c1N [2,3-Diaminotoluene]
LDH release cytotoxicity (0.03162 µM): -0.0536 ± 0.59%
LDH release cytotoxicity (0.1 µM): -0.722 ± 0.31%
LDH release cytotoxicity (0.3162278 µM): 0.216 ± 0.21%
LDH release cytotoxicity (1 µM): -0.468 ± 0.4%
LDH release cytotoxicity (3.16228 µM): -0.351 ± 0.98%
LDH release cytotoxicity (10 µM): 0.016 ± 0.52%
LDH release cytotoxicity (31.6228 µM): -0.572 ± 0.99%
LDH release cytotoxicity (100 µM): 0.619 ± 0.97%

Oc1cc(Cl)c(Cl)cc1Cl [2,4,5-Trichlorophenol]
LDH release cytotoxicity (0.03162 µM): -1.03 ± 1.1%
LDH release cytotoxicity (0.1 µM): -1.29 ± 0.21%
LDH release cytotoxicity (0.3162278 µM): -1.7 ± 1.3%
LDH release cytotoxicity (1 µM): -1.77 ± 0.63%
LDH release cytotoxicity (3.16228 µM): -1.83 ± 0.36%
LDH release cytotoxicity (10 µM): -1.75 ± 0.2%
LDH release cytotoxicity (31.6228 µM): -1.87 ± 1.3%
LDH release cytotoxicity (100 µM): -0.358 ± 0.97%

Cc1cc(C)c(O)c(C)c1 [2,4,6-Trimethylphenol]
LDH release cytotoxicity (0.03162 µM): -0.941 ± 0.86%
LDH release cytotoxicity (0.1 µM): -0.527 ± 0.093%
LDH release cytotoxicity (0.3162278 µM): -0.0601 ± 1%
LDH release cytotoxicity (1 µM): -1.16 ± 0.46%
LDH release cytotoxicity (3.16228 µM): -0.619 ± 0.33%
LDH release cytotoxicity (10 µM): -0.296 ± 0.75%
LDH release cytotoxicity (31.6228 µM): 0.116 ± 0.41%
LDH release cytotoxicity (100 µM): 0.371 ± 1.2%

CC(C)(C)c1cc(C(C)(C)C)c(O)c(C(C)(C)C)c1 [2,4,6-Tris(tert-butyl)phenol]
LDH release cytotoxicity (0.03162 µM): -0.34 ± 0.36%
LDH release cytotoxicity (0.1 µM): -0.143 ± 0.55%
LDH release cytotoxicity (0.3162278 µM): -0.16 ± 0.35%
LDH release cytotoxicity (1 µM): -0.404 ± 0.24%
LDH release cytotoxicity (3.16228 µM): -0.476 ± 0.26%
LDH release cytotoxicity (10 µM): 0.204 ± 1.6%
LDH release cytotoxicity (31.6228 µM): -0.0327 ± 1.8%
LDH release cytotoxicity (100 µM): 0.75 ± 0.75%

CC(C)CC(C)(O)C#CC(C)(O)CC(C)C (configuration not stated) [2,4,7,9-Tetramethyl-5-decyne-4,7-diol]
LDH release cytotoxicity (0.03162 µM): -0.689 ± 0.26%
LDH release cytotoxicity (0.1 µM): -0.678 ± 0.45%
LDH release cytotoxicity (0.3162278 µM): -0.883 ± 0.019%
LDH release cytotoxicity (1 µM): -1.4 ± 0.25%
LDH release cytotoxicity (3.16228 µM): -0.76 ± 0.5%
LDH release cytotoxicity (10 µM): -0.333 ± 0.27%
LDH release cytotoxicity (31.6228 µM): 0.979 ± 0.2%
LDH release cytotoxicity (100 µM): 2.91 ± 0.27%

CC(C)(c1ccccc1)c1ccc(O)c(C(C)(C)c2ccccc2)c1 [2,4-Bis(1-methyl-1-phenylethyl)phenol]
LDH release cytotoxicity (0.03162 µM): -0.358 ± 0.3%
LDH release cytotoxicity (0.1 µM): -1.13 ± 0.14%
LDH release cytotoxicity (0.3162278 µM): -0.577 ± 0.043%
LDH release cytotoxicity (1 µM): -1.2 ± 1.5%
LDH release cytotoxicity (3.16228 µM): -1.41 ± 0.08%
LDH release cytotoxicity (10 µM): -0.479 ± 0.49%
LDH release cytotoxicity (31.6228 µM): -0.0613 ± 0.39%
LDH release cytotoxicity (100 µM): 0.487 ± 0.24%
